Consider eight compounds from article PMC4199632, “Exploring the Anti-Cancer Activity of Novel Thiosemicarbazones Generated through the Combination of Retro-Fragments: Dissection of Critical Structure-Activity Relationships” (PLoS ONE, 2014).

The subject of data set [1] is HCT116 p53+/+ colon cancer cells. Put plainly: Proliferation assay (MTS, 96 h). The data set is classed as cell-based, human. Particulars: Homo sapiens, HCT-116; 96 h incubation, MTS; mean ±SD (3 experiments). As for the experimental part: (§1) The human cancer cell types (neuroepithelioma (SK-N-MC), colon cancer (HCT116 with wild-type p53 (p53^+/+)), Burkitt's lymphoma (Raji) and cervical carcinoma (HeLa)) cells and normal human dermal fibroblasts (NHDF) were obtained from the American Type Culture Collection (ATCC, Manassas, VA, USA). HCT116 null p53 (p53^−/−) cells were obtained from the Maria Sklodowska-Curie Memorial Cancer Center and Institute of Oncology, Poland.
(§2) The SK-N-MC cells were cultured in minimum essential medium (MEM; Life Technologies, Grand Island, New York, USA) containing 10% (v/v) fetal bovine serum (FBS; Life Technologies), 1 mM sodium pyruvate (Life Technologies), 1% (v/v) non-essential amino acids (Life Technologies), 2 mM L-glutamine (Life Technologies), 100 U/mL penicillin (Life Technologies), 100 µg/mL streptomycin (Life Technologies) and 0.28 µg/mL fungizone (Bristol Myers Squibb Pharmaceuticals, Montreal, Canada). The HCT116 and NHDF cells were grown in Dulbecco's modified Eagle's medium (DMEM; Sigma-Aldrich) supplemented with 12% (v/v) heat-inactivated FBS (HCT116; Life Technologies) or 15% (v/v) FBS (NHDF; Life Technologies), 100 µg/mL of gentamicin (Polfa Warszawa S.A., Warsaw, Poland), 100 µg/mL of streptomycin (Polfa) and 100 U/mL of penicillin (Polfa). The Raji and HeLa cells were cultured in Roswell Park Memorial Institute medium (RPMI-1640; Sigma-Aldrich) with the addition of 10% (v/v) heat-inactivated FBS (Life Technologies) and the supplements described for SK-N-MC cells above. All cell lines were cultured under standard conditions at 37°C in a humidified atmosphere at 5% CO2 and were subcultured every 3–4 days as required.
(§3) The cells were seeded in 96-well plates (SK-N-MC: 1.5×10^4 cells/well; HeLa: 5.0×10^3 cells/well; Raji: 3.0×10^3 cells/well; HCT116: 3.5×10^3 cells/well; NHDF: 3.0×10^3 cells/well) 24 h prior to the addition of the novel compounds. The assays were performed using a 72 h (SK-N-MC, Raji, HeLa) or 96 h (HCT 116, NHDF) incubation period with the agents at 37°C. […] Additionally, DFO and Dp44mT were included as positive controls in all experiments as their activity is well characterized, [42], [50].
(§4) Chelator stock solutions were prepared in DMSO and diluted in media so that the final [DMSO] <0.05%. The results were expressed as a percentage of the control and the resulting IC50 values were calculated using GraphPad Prism 5 (GraphPad Software, Inc., La Jolla, CA, USA). The IC50 was defined as the concentration necessary to reduce the absorbance to 50% of the untreated control. Each individual compound was tested in triplicate in a single experiment, with each experiment being repeated three times. After incubation of HCT 116 and NHDF cells with the tested compounds, 20 µL of the CellTiter 96 Aqueous One Solution - MTS (Promega, Madison, WI, USA) solution was added to each well (with 100 µL of DMEM without phenol red) and incubated for 1 h/37°C. The optical density of the samples was analyzed at 490 nm.

In data set [2] the test system is HCT116 p53−/− colon cancer cells. Put plainly: Proliferation assay (MTS, 96 h). The following applies: Homo sapiens, HCT-116, 96 h, 96 h incubation, MTS; mean ±SD (3 experiments). The data set is classed as cell-based, human. How it is done:
as §1, §2, §3, §4

Data set [3] concerns Raji Burkitt's lymphoma cells. The data set can be described thus: Proliferation assay (MTT, 72 h). The following applies: Homo sapiens, 72 h incubation, mean ±SD (3 experiments). The data set is classed as cell-based. As for the experimental part:
as §1, §2, §3, §4
(§5) MTT (3-[4,5-dimethylthiazol-2-yl]-2,5-diphenyltetrazolium bromide) was used to evaluate the anti-proliferative effects of the chelators in SK-N-MC and Raji cells. Following incubation with the investigated compounds, 10 µL of MTT (5 mg/mL in PBS; Sigma-Aldrich) was added to each well. After a 2 h (SK-N-MC) or 4 h (Raji) incubation, the plates were centrifuged, and the cells were lysed with 100 µL of 10% SDS-50% isobutanol in 0.01 M HCl (SK-N-MC) or DMSO (Raji). The absorbance was measured at 570 nm. The anti-proliferative effects of these novel agents on HeLa cells were estimated using crystal violet staining (0.5% crystal violet solution for 10 min). Finally, the wells were rinsed with water and the cells were lysed with 2% SDS. The optical density of the samples was analyzed at 595 nm.

Data set [4] concerns SK-N-MC neuroepithelioma cells. The data set can be described thus: Proliferation assay (MTT, 72 h). The data set is classed as cell-based. The following applies: Homo sapiens, 72 h incubation, mean ±SD (3 experiments). How it is done:
as §1, §2, §3, §4, §5

Data set [5] deals with HeLa cervical carcinoma cells. The data set can be described thus: Proliferation assay (crystal violet, 72 h). It counts as cell-based. The following applies: Homo sapiens, 72 h incubation, mean ±SD (3 experiments). How it is done:
as §1, §2, §3, §4, §5

Data set [6] relates to normal human dermal fibroblast (NHDF) cells. Put plainly: Proliferation assay (MTS, 96 h), normal mortal cells. The data set is classed as cell-based. Particulars: Homo sapiens, NHDF, 96 h, 96 h incubation, mean ±SD (3 experiments). How it is done:
as §1, §2, §3, §4

Data set [7] relates to SK-N-MC cells. The data set can be described thus: Mobilization of cellular 59Fe (59Fe efflux). Particulars: chelator 25 µM; for 59Fe mobilization (% of cellular 59Fe released): 3 h/37°C, prelabeled SK-N-MC cells, control medium 4±1%. The data set is classed as cell-based, human. As for the experimental part:
(§6) The iron transport protein, Tf (Sigma-Aldrich), was labeled with ^59Fe (PerkinElmer Life and Analytical Sciences, Boston, MA) to form ^59Fe2-Tf using standard methods, [7]. Unbound ^59Fe was removed by passage through a Sephadex G25 column and was followed by exhaustive dialysis, [7].
To examine the ability of the novel chelators to mobilize ^59Fe from SK-N-MC cells, ^59Fe efflux experiments were performed using established techniques, [51]. The monolayer of SK-N-MC cells was prelabeled for 3 h at 37°C in MEM containing ^59Fe2-Tf (0.75 µM). Cells were then washed four times with ice-cold PBS and incubated for a further 3 h at 37°C with medium alone (the control) or medium containing the chelator (25 µM). After this incubation, the overlying medium that contained the released ^59Fe was separated from the cells using a Pasteur pipette. Radioactivity was measured in both the cells and supernatant using a γ-scintillation counter (Wallac Wizard 3, Turku, Finland). In these studies, the novel ligands were compared to the previously characterized chelators, DFO and Dp44mT, as their ability to mobilize cellular ^59Fe has been extensively examined in these cells, [12], [17], [18], [50].
Figure 6 Effect of (A) series 1, (B) series 2, (C) series 3, (D) series 4, (E) series 5 and (F) series 6 chelators, relative to the controls DFO and Dp44mT, on ^59Fe mobilization from prelabeled SK-N-MC cells. Cells were incubated for 3 h/37°C with ^59Fe-transferrin (0.75 µM), washed 4 times with ice-cold PBS and then reincubated for 3 h/37°C in the presence or absence of the chelators (25 µM). Release of ^59Fe was then assessed using a γ-scintillation counter. Results are mean ±SD (3 experiments).

Data set [8] concerns SK-N-MC cells. Put plainly: Inhibition of cellular 59Fe uptake from 59Fe2-Tf. The data set is classed as cell-based, human. Particulars: chelator 25 µM; for Internalized 59Fe uptake from 59Fe2-Tf (% of the control): 59Fe2-Tf 0.75 µM, 3 h/37°C. How it is done: as §6
The ability of the chelators to prevent the cellular uptake of ^59Fe from ^59Fe2-Tf was examined using standard methods, [14], [17], [18], [50]. A monolayer of SK-N-MC cells was incubated with medium containing ^59Fe2-Tf (0.75 µM) and the chelator (25 µM) for 3 h at 37°C. The medium was then removed and the cells were washed four times with ice-cold PBS. The cells were then incubated for 30 min at 4°C with the general protease, Pronase (1 mg/mL; Sigma-Aldrich), to remove membrane-bound ^59Fe. The cells were removed using a plastic spatula and centrifuged at 14,000 rpm/1 min to separate internalized from membrane-bound ^59Fe. The cell pellet was resuspended in 1 mL of PBS and the internalized ^59Fe was measured on a γ-scintillation counter. Internalized ^59Fe uptake was calculated as a percentage of the control (medium alone). Again, the novel ligands were compared to DFO and Dp44mT as their ability to inhibit cellular ^59Fe uptake has been extensively characterized using SK-N-MC cells, [14], [17], [18], [50].
Figure 8 Effect of (A) series 1, (B) series 2, (C) series 3, (D) series 4, (E) series 5 and (F) series 6 chelators, relative to the controls DFO and Dp44mT, on ^59Fe uptake from ^59Fe-transferrin by SK-N-MC cells. Cells were incubated for 3 h/37°C with ^59Fe-transferrin (0.75 µM) in the presence or absence of the chelators (25 µM). At the end of this incubation, cells were washed 4 times with ice-cold PBS. Internalization of ^59Fe was assessed by incubation for 30 min/4°C with the protease, Pronase (1 mg/mL). Cellular ^59Fe was then assessed using a γ-scintillation counter. Results are mean ±SD (3 experiments).

On the set-up of data set [9]: method as in PMID 17851637, PMID 18217206, PMID 15148626. Particulars: clinical trials; cited from earlier work.

In general, IC50 refers to the concentration needed to halve the response being measured. With `S=C(NN=C(c1ccccn1)c1ccccn1)N1CCOCC1` [1c], the 50% inhibitory concentration (IC50) in data set [1] was found to be 0.014 ± 0.005 µM; in data set [2] it was 0.014 ± 0.006 µM; in [3], 0.003 ± 0.004 µM; in data set [4] it was 1.21 ± 0.35 µM; in [5] it was 2.21 ± 0.47 µM; in data set [6] it was 0.016 ± 0.006 µM. Also, the “59Fe mobilization (% of cellular 59Fe released)” value with SK-N-MC cells [7] was 31–39%. The “Internalized 59Fe uptake from 59Fe2-Tf (% of the control)” value with SK-N-MC cells [8] is recorded as 3.6–11.5%.

In the case of `S=C(N/N=C/c1ccc2ccccc2n1)N1CCN(c2ccccn2)CC1` [2d], the 50% inhibitory concentration (IC50) in data set [1] came out at 0.39 ± 0.15 µM; in data set [2] it was 0.27 ± 0.16 µM; in data set [3], 0.05 ± 0.02 µM; in [4], 0.52 ± 0.16 µM; in [5], 5.14 ± 2.87 µM; in [6], 0.032 ± 0.008 µM. Further, the “59Fe mobilization efficacy compared with controls” value with SK-N-MC cells [7] (SK-N-MC cells) was “comparable release of ^59Fe relative to DFO”. Moreover, the “Inhibition of 59Fe uptake compared with controls” value in the data set with SK-N-MC cells [8] was “comparable inhibition of ^59Fe uptake to that of DFO”.

In the case of `CCN1CCN(C(=S)N/N=C/c2c(O)ccc3cccnc23)CC1` [4a], the IC50 in data set [1] is 20.2 ± 0.3 µM; in data set [2] it was 20.3 ± 0.9 µM; in data set [3] it was 3.35 ± 1.11 µM; in [4], 5.09 ± 0.47 µM; in data set [5], 11.3 ± 1.6 µM; in [6], 12.1 ± 4.2 µM. Also, the “59Fe mobilization (% of cellular 59Fe released)” value with SK-N-MC cells [7] is recorded as 31–39%.

With `Oc1ccc2cccnc2c1/C=N/NC(=S)N1CCOCC1` [4c], the 50% inhibitory concentration (IC50) was 20.1 ± 0.3 µM in data set [1]; 19.8 ± 4.9 µM in data set [2]; 3.53 ± 1.87 µM in data set [3]; 4.97 ± 0.95 µM in [4]; 10.2 ± 1.2 µM in data set [5]; more than 25 µM in data set [6]. The “59Fe mobilization (% of cellular 59Fe released)” value in the data set on SK-N-MC cells [7] is 31–39%.

On to `S=C(N/N=C/c1cnc2ccccc2n1)N1CCOCC1` [5c], for which the IC50 in data set [1] worked out at 2.03 ± 1.24 µM; in [2], 5.84 ± 1.65 µM; in data set [3], 0.24 ± 0.04 µM; in data set [4], 2.87 ± 1.25 µM; in data set [5] it was 0.86 ± 0.09 µM; in data set [6] it was 11.6 ± 1.8 µM. For the same compound, in the data set with SK-N-MC cells [8], the “Internalized 59Fe uptake from 59Fe2-Tf (% of the control)” value is reported as 3.6–11.5%.

A word on the melting point: it is the temperature, or range, at which the solid turns liquid. For the compound `Oc1ccccc1/C=N/NC(=S)N1CCN(c2ccccc2)CC1` [6b], the melting point is 206 to 207 °C. This compound also showed a half-inhibitory concentration (IC50) in data set [1] of 6.9 ± 2.3 µM. This compound also showed an IC50 in data set [2] of 8.86 ± 1.46 µM. The same compound showed an IC50 in data set [3] of 1.96 ± 0.85 µM. The compound further gave a 50% inhibitory concentration (IC50) in data set [4] of 5.13 ± 0.51 µM. The IC50 in data set [5] was 5.8 ± 0.48 µM. This compound gave an IC50 in [6] of 13.5 ± 4.8 µM.

In the case of `Oc1ccccc1/C=N/NC(=S)N1CCOCC1` [6c], the IC50 was 15.4 ± 1.7 µM in data set [1]; 16.4 ± 3.1 µM in [2]; 3.79 ± 0.08 µM in data set [3]; more than 6.25 µM in data set [4]; 18.2 ± 1.3 µM in [5]; more than 25 µM in data set [6]. In the data set with SK-N-MC cells [8], the “Internalized 59Fe uptake from 59Fe2-Tf (% of the control)” value is given as 3.6–11.5%.

Regarding `NC(=S)NN=Cc1ncccc1N` [Triapine, 3-aminopyridine-2-carboxaldehyde thiosemicarbazone], the “Side effects upon administration” value in data set [9] is “methemoglobin formation and hypoxia”.
